ChEMBL document CHEMBL1148943, “Estrogenic and anticarcinogenic properties of kurarinone, a lavandulyl flavanone from the roots of Sophora flavescens” (J Nat Prod, 2004)

Tests used:
Estrogen receptor [1] = molecular target: T1, Estrogen receptor (Homo sapiens, UniProt P03372); assay: Estrogenic activity at human estrogen receptor expressing Saccharomyces cerevisiae carrying estrogen responsive sequence containing plasmid assessed as metabolism of chlorophenol res beta-D-galactopyranoside
T1 sequence (P03372 whole entry): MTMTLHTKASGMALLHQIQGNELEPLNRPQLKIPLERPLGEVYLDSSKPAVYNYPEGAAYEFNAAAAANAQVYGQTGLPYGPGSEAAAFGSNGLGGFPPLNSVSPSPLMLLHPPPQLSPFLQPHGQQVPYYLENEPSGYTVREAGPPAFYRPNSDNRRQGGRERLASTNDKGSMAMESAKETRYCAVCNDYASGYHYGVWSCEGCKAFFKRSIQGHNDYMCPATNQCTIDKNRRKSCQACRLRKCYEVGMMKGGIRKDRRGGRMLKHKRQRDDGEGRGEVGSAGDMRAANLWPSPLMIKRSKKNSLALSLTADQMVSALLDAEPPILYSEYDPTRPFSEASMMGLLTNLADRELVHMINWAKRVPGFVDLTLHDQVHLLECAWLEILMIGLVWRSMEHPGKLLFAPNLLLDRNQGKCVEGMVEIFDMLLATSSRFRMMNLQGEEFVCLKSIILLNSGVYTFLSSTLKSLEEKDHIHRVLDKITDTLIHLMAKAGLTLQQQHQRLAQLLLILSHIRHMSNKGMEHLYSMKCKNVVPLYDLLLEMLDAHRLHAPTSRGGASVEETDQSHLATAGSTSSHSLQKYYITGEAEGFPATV

Estrogen receptor [2] = molecular target: T1, Estrogen receptor; assay: Estrogenic activity at estrogen receptor in human Ishikawa Var-1 cells assessed as stimulation of alkaline phosphatase activity measured by metabolism of p-nitrophenol phosphatase after 72 hrs; format: cell-based
[3] = Cytotoxicity against human MCF7/6 cells after 72 hrs by SRB assay; format: functional, cell-based; settings: MCF7/6, 72 h
[4] = Cytotoxicity against human MCF7/6 cells at 80 uM after 72 hrs by SRB assay; format: functional; settings: MCF7/6, 72 h
[5] = Cytotoxicity against human MCF7/6 cells at 40 uM after 72 hrs by SRB assay; format: functional; settings: MCF7/6, 72 h

C=C(C)C(CC=C(C)C)Cc1c(O)cc(OC)c2c1O[C@H](c1ccc(O)cc1O)CC2=O (stereo not given in full) [KURARINONE]
EC50 (Estrogen receptor [1]): 4.6 µM | EC50 (Estrogen receptor [2]): 1.66 µM | IC50 [3]: 22.2 µM | inhibition at 80 µM [4]: > 80% | inhibition at 40 µM [5]: 60%
